Target: P. falciparum apicoplast DNA polymerase (Pf-apPOL) (Plasmodium falciparum, UniProt Q8ILY1)
Assay: Fluorescence-based high-throughput DNA polymerase assay (molecular beacon), primary screen and dose-response
Assay type: biochemical
Details: for DNA Pol: 90 min, 10 µM; for % inhibition apPOL 180' 2.5 / % inhibition apPOL 180' 5 / % inhibition apPOL 180' 10 / % inhibition apPOL 180' 20 / % inhibition apPOL 180' 40 / % inhibition apPOL 180' 80: read at 180'
How it was run: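 Single-point screening used 10 µM compound with 20 nM polymerase, 20 nM hairpin substrate and 6 µM dNTPs for 90 min at 25 °C. Confirmatory titrations (2.5–80 µM) followed fluorescence at three times, and IC50 was derived from a fit including a cooperativity term n.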

P. falciparum apicoplast DNA polymerase (Pf-apPOL), sequence (Q8ILY1 entry or part of it): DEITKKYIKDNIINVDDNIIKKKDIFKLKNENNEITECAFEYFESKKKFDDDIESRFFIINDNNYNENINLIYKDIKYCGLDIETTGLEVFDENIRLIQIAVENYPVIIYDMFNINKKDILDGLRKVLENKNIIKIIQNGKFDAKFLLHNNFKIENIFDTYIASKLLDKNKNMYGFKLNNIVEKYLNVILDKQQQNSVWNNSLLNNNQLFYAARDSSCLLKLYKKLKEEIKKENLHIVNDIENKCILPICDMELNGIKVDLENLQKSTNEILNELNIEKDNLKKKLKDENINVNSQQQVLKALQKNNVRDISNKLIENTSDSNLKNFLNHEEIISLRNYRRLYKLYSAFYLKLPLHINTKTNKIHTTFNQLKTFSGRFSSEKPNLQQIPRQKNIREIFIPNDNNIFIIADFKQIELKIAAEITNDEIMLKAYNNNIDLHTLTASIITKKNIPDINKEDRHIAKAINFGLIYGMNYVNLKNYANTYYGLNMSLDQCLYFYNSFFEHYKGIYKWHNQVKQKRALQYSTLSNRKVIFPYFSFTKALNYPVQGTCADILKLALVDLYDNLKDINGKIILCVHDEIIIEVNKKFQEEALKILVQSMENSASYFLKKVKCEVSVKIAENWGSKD

With `CC(=O)OCC1=C(C(=O)[O-])N2C(=O)[C@@H](NC(=O)Cc3cccs3)[C@H]2SC1.[Na+]` [Molecule 73, CC(=O)OCC1=C(C(=O)[O-])N2[C@H](SC1)[C@@H](C2=O)NC(=O)Cc1cccs1.[Na+]] as the molecule, how does the “DNA Pol” value (186 hits, DNA Pol (screen value), unit not given) read?
The value was 62.

What about the “DNA Pol” value ('DNA Pol' (screen value), unit not given) of the same molecule?
Its value is 62.

And the “% inhibition Apo pol 10' 2.5” value (DRC-1, read at 10', concentration 2.5)?
Its value is 15.9246%.

And the “% inhibition Apo pol 10' 5” value (DRC-1, read at 10', concentration 5)?
Its value is 24.2196%.

And the “% inhibition Apo pol 10' 10” value (DRC-1, read at 10', concentration 10)?
The value was 38.6298%.

What about the “% inhibition Apo pol 10' 20” value (DRC-1, read at 10', concentration 20) of the same molecule?
The value was 52.9189%.

And the “% inhibition Apo pol 10' 40” value (DRC-1, read at 10', concentration 40)?
Its value is 72.9017%.

And the “% inhibition Apo pol 10' 80” value (DRC-1, read at 10', concentration 80)?
Its value is 83.4409%.

What about the “% inhibition Apol 90' 2.5” value (DRC-1, read at 90', concentration 2.5) of the same molecule?
Its value is -0.64%.

And the “% inhibition Apol 90' 5” value (DRC-1, read at 90', concentration 5)?
The value was -0.282%.

What about the “% inhibition Apol 90' 10” value (DRC-1, read at 90', concentration 10) of the same molecule?
The value was 6.863%.

And the “% inhibition Apol 90' 20” value (DRC-1, read at 90', concentration 20)?
Its value is 14.2955%.

What about the “% inhibition Apol 90' 40” value (DRC-1, read at 90', concentration 40) of the same molecule?
Its value is 36.8577%.

And the “% inhibition Apol 90' 80” value (DRC-1, read at 90', concentration 80)?
The value was 67.9349%.

What about the “% inhibition apPOL 180' 2.5” value (DRC-1, concentration 2.5) of the same molecule?
The value was -8.644%.

And the “% inhibition apPOL 180' 5” value (DRC-1, concentration 5)?
The value was -9.547%.

What about the “% inhibition apPOL 180' 10” value (DRC-1, concentration 10) of the same molecule?
The value was -4.869%.

What about the “% inhibition apPOL 180' 20” value (DRC-1, concentration 20) of the same molecule?
Its value is -0.1262%.

And the “% inhibition apPOL 180' 40” value (DRC-1, concentration 40)?
Its value is 18.2499%.

And the “% inhibition apPOL 180' 80” value (DRC-1, concentration 80)?
Its value is 56.6871%.

What about the “% inhibition Apol 40'” value (DRC-2, concentration 2.5) of the same molecule?
The value was 1.25%.

What about the “% inhibition Apol 40'” value (DRC-2, concentration 20) of the same molecule?
Its value is 29%.

What about the “% inhibition ApPOL 90'” value (DRC-2, concentration 2.5) of the same molecule?
Its value is 1.25%.

What about the “% inhibition apPOL 180'” value (DRC-2, concentration 40) of the same molecule?
Its value is 29%.

What about the “% inhibition Apo pol 5' 2.5” value (DRC-2, read at 5', concentration 2.5) of the same molecule?
The value was 3%.

What about the “% inhibition Apo pol 5' 5” value (DRC-2, read at 5', concentration 5) of the same molecule?
The value was 6.34%.

And the “% inhibition Apo pol 5' 10” value (DRC-2, read at 5', concentration 10)?
Its value is 22%.

What about the “% inhibition Apo pol 5' 20” value (DRC-2, read at 5', concentration 20) of the same molecule?
Its value is 36%.

And the “% inhibition Apo pol 5' 40” value (DRC-2, read at 5', concentration 40)?
The value was 43%.

And the “% inhibition Apo pol 5' 80” value (DRC-2, read at 5', concentration 80)?
Its value is 50%.

What about the “% inhibition Apol 40' 2.5” value (DRC-2, read at 40', concentration 2.5) of the same molecule?
Its value is 1.25%.

And the “% inhibition Apol 40' 5” value (DRC-2, read at 40', concentration 5)?
Its value is 2%.

What about the “% inhibition Apol 40' 10” value (DRC-2, read at 40', concentration 10) of the same molecule?
The value was 13%.

What about the “% inhibition Apol 40' 20” value (DRC-2, read at 40', concentration 20) of the same molecule?
The value was 29%.

And the “% inhibition Apol 40' 40” value (DRC-2, read at 40', concentration 40)?
Its value is 45%.

And the “% inhibition Apol 40' 80” value (DRC-2, read at 40', concentration 80)?
The value was 62%.

What about the “% inhibition ApPOL 90' 2.5” value (DRC-2, read at 90', concentration 2.5) of the same molecule?
Its value is 1.25%.

And the “% inhibition ApPOL 90' 5” value (DRC-2, read at 90', concentration 5)?
Its value is -1.85%.

And the “% inhibition ApPOL 90' 10” value (DRC-2, read at 90', concentration 10)?
The value was 5%.

And the “% inhibition ApPOL 90' 20” value (DRC-2, read at 90', concentration 20)?
Its value is 20%.

And the “% inhibition ApPOL 90' 40” value (DRC-2, read at 90', concentration 40)?
Its value is 39%.

And the “% inhibition ApPOL 90' 80” value (DRC-2, read at 90', concentration 80)?
The value was 63%.

What about the “% inhibition apPOL 180' 2.5” value (DRC-2, concentration 2.5) of the same molecule?
Its value is -0.311%.

And the “% inhibition apPOL 180' 5” value (DRC-2, concentration 5)?
Its value is -7%.

What about the “% inhibition apPOL 180' 10” value (DRC-2, concentration 10) of the same molecule?
Its value is -2.83%.

And the “% inhibition apPOL 180' 20” value (DRC-2, concentration 20)?
The value was 10%.

And the “% inhibition apPOL 180' 40” value (DRC-2, concentration 40)?
Its value is 29%.

What about the “% inhibition apPOL 180' 80” value (DRC-2, concentration 80) of the same molecule?
Its value is 60%.

How did the “DNA Pol” value ('DNA Pol' of the 186 hits list (primary screen value)) turn out when `CC(C)(C)OC(=O)COc1ccc2cc(-c3ccccc3)c(=O)oc2c1` [Molecule 81, O=C(OC(C)(C)C)COc1ccc2c(c1)oc(=O)c(c2)c1ccccc1] was run?
The value was 44.

What about the “DNA Pol” value (DNA Pol (primary screen value)) of the same molecule?
Its value is 44.

What about the “% inhibition Apo pol 10'” value (DRC-1, concentration 2.5) of the same molecule?
The value was -2.0657%.

What about the “% inhibition Apo pol 10'” value (DRC-1, concentration 5) of the same molecule?
Its value is -5.666%.

And the “% inhibition Apo pol 10'” value (DRC-1, concentration 10)?
Its value is 3.988%.

And the “% inhibition Apo pol 10'” value (DRC-1, concentration 20)?
The value was 8.332%.

And the “% inhibition Apo pol 10'” value (DRC-1, concentration 40)?
Its value is 16.7579%.

And the “% inhibition Apo pol 10'” value (DRC-1, concentration 80)?
Its value is 23.4286%.

And the “% inhibition Apol 90'” value (DRC-1, concentration 2.5)?
Its value is 2.03%.

And the “% inhibition Apol 90'” value (DRC-1, concentration 5)?
Its value is 3.443%.

And the “% inhibition Apol 90'” value (DRC-1, concentration 10)?
Its value is 16.0875%.

What about the “% inhibition Apol 90'” value (DRC-1, concentration 20) of the same molecule?
The value was 22.5271%.

What about the “% inhibition Apol 90'” value (DRC-1, concentration 40) of the same molecule?
The value was 30.9519%.

And the “% inhibition Apol 90'” value (DRC-1, concentration 80)?
Its value is 41.1721%.

What about the “% inhibition apPOL 180'” value (DRC-1, concentration 2.5) of the same molecule?
The value was 5.717%.

What about the “% inhibition apPOL 180'” value (DRC-1, concentration 5) of the same molecule?
The value was 14.8656%.

What about the “% inhibition apPOL 180'” value (DRC-1, concentration 10) of the same molecule?
Its value is 30.2199%.

And the “% inhibition apPOL 180'” value (DRC-1, concentration 20)?
Its value is 41.9896%.

And the “% inhibition apPOL 180'” value (DRC-1, concentration 40)?
Its value is 50.3603%.

What about the “% inhibition apPOL 180'” value (DRC-1, concentration 80) of the same molecule?
Its value is 64.7026%.

And the “% inhibition Apo pol 5'” value (DRC-2, concentration 2.5)?
Its value is 8%.

And the “% inhibition Apo pol 5'” value (DRC-2, concentration 5)?
The value was 10%.

What about the “% inhibition Apo pol 5'” value (DRC-2, concentration 10) of the same molecule?
The value was 23%.

What about the “% inhibition Apo pol 5'” value (DRC-2, concentration 20) of the same molecule?
Its value is 28%.

What about the “% inhibition Apo pol 5'” value (DRC-2, concentration 40) of the same molecule?
The value was 36%.

And the “% inhibition Apo pol 5'” value (DRC-2, concentration 80)?
The value was 44%.

What about the “% inhibition Apol 40'” value (DRC-2, concentration 2.5) of the same molecule?
Its value is 5.4%.

What about the “% inhibition Apol 40'” value (DRC-2, concentration 5) of the same molecule?
Its value is -3%.

And the “% inhibition Apol 40'” value (DRC-2, concentration 10)?
The value was 19%.

And the “% inhibition Apol 40'” value (DRC-2, concentration 20)?
The value was 25%.

And the “% inhibition Apol 40'” value (DRC-2, concentration 40)?
The value was 33%.

What about the “% inhibition Apol 40'” value (DRC-2, concentration 80) of the same molecule?
Its value is 44%.

What about the “% inhibition ApPOL 90'” value (DRC-2, concentration 2.5) of the same molecule?
The value was 3.57%.

And the “% inhibition ApPOL 90'” value (DRC-2, concentration 5)?
Its value is -14%.

What about the “% inhibition ApPOL 90'” value (DRC-2, concentration 10) of the same molecule?
The value was 13%.

What about the “% inhibition ApPOL 90'” value (DRC-2, concentration 20) of the same molecule?
The value was 18%.

What about the “% inhibition ApPOL 90'” value (DRC-2, concentration 40) of the same molecule?
The value was 27%.

What about the “% inhibition ApPOL 90'” value (DRC-2, concentration 80) of the same molecule?
The value was 38%.

And the “% inhibition apPOL 180'” value (DRC-2, concentration 2.5)?
The value was -1.44%.

And the “% inhibition apPOL 180'” value (DRC-2, concentration 5)?
Its value is -93%.

And the “% inhibition apPOL 180'” value (DRC-2, concentration 10)?
Its value is 1.59%.

And the “% inhibition apPOL 180'” value (DRC-2, concentration 20)?
The value was 2.69%.

What about the “% inhibition apPOL 180'” value (DRC-2, concentration 40) of the same molecule?
Its value is 13%.

What about the “% inhibition apPOL 180'” value (DRC-2, concentration 80) of the same molecule?
The value was 23%.

Reference: publication PMC9090415, “Discovery of small molecule inhibitors of Plasmodium falciparum apicoplast DNA polymerase” (Journal of Enzyme Inhibition and Medicinal Chemistry, 2022)
